The source of these data is US20180066268A1, “USE OF VITAMINS AND VITAMIN METABOLIC GENES AND PROTEINS FOR RECOMBINANT PROTEIN PRODUCTION IN MAMMALIAN CELLS” (priority 2015, published 2018).

For test [1], the system named is CHO-M cells. In words: CHO-M growth in vitamin-depleted B-CDmin medium complemented with lower concentrations of each vitamin. In kind it is cell-based, Chinese hamster. As for the experimental part: Cells (5000 cells/ml) were transferred into 150 μl media with different concentrations of vitamin B1, B5 or H (from 0 to 1×, see Table 2). 96 well-plates were used and growth was measured after 9 days of culture, by measuring the OD at 600 nm. Hatched (forward-leaning), dotted dark and hatched (backward-leaning) bars indicate modulation of B1, B5 and H concentrations, respectively.
The depleted B-CDmin medium was complemented with lower concentration of each vitamin separately, to determine the contrations range limiting CHO-M growth.
Suspension Chinese hamster ovary cells (CHO-M) were maintained in suspension culture in SFM4CHO-M Hyclone serum-free medium (SFM, ThermoScientific™) supplemented with L-glutamine (PAA, Austria) and HT supplement (GIBCO, INVITROGEN LIFE SCIENCES) at […], 5% CO2 in humidified air. Other cell media used for these experiments are the BalanCD CHO-M Growth A (B-CDfull; Irvine Scientific), and the Deficient BalanCD CHO-M Growth A (B-CDmin; Irvine Scientific), supplemented with vitamin B1 (thiamine Hydrochloride; SIGMA ALDRICH), vitamin B5 (Calcium DL-Pantothenate; TCI) and vitamin H (Biotin, SIGMA ALDRICH)

The subject of test [2] is CHO-M cells. The experiment in a line: CHO-M growth in B-CDmin medium supplemented with various concentrations of B5 and H. To be noted: B5 in 10× excess with low H (10×B5; 10^−4×H), 6 days of culture. The format is cell-based, Chinese hamster.
Procedure: Cells were seeded at 20000 cells/ml into 500 μl of B-CD min media supplemented with the indicated amounts of vitamin B5 and H, and with B1 (1×). A 24 well-plate was used and growth was measured after 6 days of culture by measuring viable cell density.

For the compound `O=C(O)CCCC[C@@H]1SC[C@@H]2NC(=O)N[C@@H]21` [H, Biotin], in the test with CHO-M cells [1] (H at low concentration (10^−5×)), the “cell density versus full medium” value was “slightly higher”. The compound further gave a limiting concentration with CHO-M cells [1] (absolute concentration as printed, CHO-M, 9 days of culture) of less than 5 µM. For the same compound, the growth-limiting concentration range entry in the test on CHO-M cells [1] (relative to standard concentration (1×: B1 7.5 μM, B5 2.5 μM, H 0.5 μM), CHO-M, 9 days of culture) is “lower than 10^−5 ×”.
Calcium DL-Pantothenate [B5]: the “untransformed cell growth relative to complete medium (1×B5; 10^−4×H)” value in the test on CHO-M cells [2] is reported as “strongly inhibited”. In addition, in the test with CHO-M cells [1] (relative to standard B5 concentration (1× = 2.5 μM)), the “concentration allowing normal culture growth” value was ≥ 10^−2 ×.
